The subject of the data set is human dermal fibroblast cells. As to the kind of experiment: Cytotoxicity test of chitosan derivates in vitro (MTT). Format: cell-based. The following applies: 48 hours after treatment. As to the method:
1×10^4 of human dermal fibroblast cells in 96 well plate were cultured in DMEM medium supplemented with 100 μl of 10% serum. Then, the cultured cells were treated with 5, 50, and 500 ng/ml of chitosan oligomer, CM-chitin and 3,6-S-chitin, respectively. 48 hours after treatment, MTT (3-[4,5-dimethylthiazol-2-yl]-2,5-diphenyltetrazolium bromide; Thiazolyl blue, Sigma Product No. M5655) was added thereto and then, the mixture was allowed to stand for 4 hours. After removal of the culture medium, the resultant mixture was washed with phosphate buffered saline 2-3 times and 100 μl of DMSO (dimethylsulfoxide) was added thereto. After chromogenesis, an absorbance was measured at 545 nm on each well using ELISA reader.

Regarding 3,6-S-chitin, the “Viability Assay Result Of Human Dermal Fibroblasts (MTT absorbance at 545 nm)” value is, setting by setting: (5 ng/ml) 0.608; (50 ng/ml) 0.727; (500 ng/ml) 0.595.
Consider CM-chitin, for which the “Viability Assay Result Of Human Dermal Fibroblasts (MTT absorbance at 545 nm)” value is, setting by setting: (5 ng/ml) 0.603; (50 ng/ml) 0.630; (500 ng/ml) 0.603.
In the case of chitosan oligomer, the “Viability Assay Result Of Human Dermal Fibroblasts (MTT absorbance at 545 nm)” value by setting is: (5 ng/ml) 0.629; (50 ng/ml) 0.618; (500 ng/ml) 0.733.

Source of the values: US6699287B2, “Dermal scaffold using alkaline pre-treated chitosan matrix or alkaline pre-treated chitosan and alkaline pre-treated collagen mixed matrix” (Korea Atomic Energy Research Institute, priority 1999, dated 2004).
